{"source": "paper PMC6421079", "about": "(European neuropsychopharmacology : the journal of the …, 2018)", "key": {"[1]": {"details": "cited from earlier work"}, "[2]": {"details": "ref Groer et al., 2007; cited from earlier work"}, "[3]": {"tested_on": "δ-ORs", "details": "ref Chiang et al., 2016; Molinari et al., 2010; cited from earlier work"}, "[4]": {"target": "δ-OR (Homo sapiens, UniProt P41143)", "sequence (P41143 whole entry)": "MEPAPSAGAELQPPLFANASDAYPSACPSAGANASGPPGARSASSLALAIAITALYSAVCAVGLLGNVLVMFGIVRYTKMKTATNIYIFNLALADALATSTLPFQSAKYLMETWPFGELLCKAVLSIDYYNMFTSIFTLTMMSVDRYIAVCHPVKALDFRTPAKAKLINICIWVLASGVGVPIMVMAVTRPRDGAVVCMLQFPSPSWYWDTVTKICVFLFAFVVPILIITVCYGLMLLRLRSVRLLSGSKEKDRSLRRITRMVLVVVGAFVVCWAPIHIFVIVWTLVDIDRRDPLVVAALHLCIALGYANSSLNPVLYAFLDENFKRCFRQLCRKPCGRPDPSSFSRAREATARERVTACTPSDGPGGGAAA", "experiment": "Radioligand binding assay: displacement of [^3H]DPDPE"}, "[5]": {"target": "humanδ-OR / β-arrestin 2 (Homo sapiens, UniProt P41143)", "sequence (P41143 whole entry)": "as above", "experiment": "β-arrestin 2 recruitment, CHO-humanδ-OR PathHunter cells", "type": "cell-based", "details": "for efficacy α β-arrestin2: normalized to leu-enkephalin, mean ± SEM"}, "[6]": {"tested_on": "δ opioid receptors (δ-ORs)", "details": "synthetic analog of rubiscolin-6; ref Yang et al., 2003b; cited from earlier work"}}, "note": "Like-named read-outs stand apart in the source and are kept apart here. Where no end group is shown, it is not given here."}
{"molecule": "C[C@@H](Cc1ccsc1)NC(=O)NC[C@H](Cc1ccc(O)cc1)N(C)C", "note": "[PZM21]", "values": [{"measurement": "side effect profile", "setting": "[1]; ref Manglik et al., 2016", "result": "appear to possess a reduced side effect profile"}]}
{"molecule": "COc1ccsc1CNCC[C@@]1(c2ccccn2)CCOC2(CCCC2)C1", "note": "[TRV130]", "values": [{"measurement": "side effect profile", "setting": "[1]; ref DeWire et al., 2013", "result": "appear to possess a reduced side effect profile"}]}
{"molecule": "COC(=O)[C@@H]1C[C@H](OC(=O)c2ccccc2)C(=O)[C@H]2[C@@]1(C)CC[C@H]1C(=O)O[C@H](c3ccoc3)C[C@]21C", "note": "[herkinorin]", "values": [{"measurement": "G protein bias, in words", "setting": "[2]", "result": "G protein-biased"}]}
{"molecule": "DADLE", "values": [{"measurement": "β-arrestin recruitment, in words", "setting": "[3]", "result": "strongly recruit β-arrestin"}]}
{"molecule": "DPDPE", "values": [{"measurement": "β-arrestin recruitment, in words", "setting": "[3]", "result": "strongly recruit β-arrestin"}]}
{"molecule": "YPLDL [Rubiscolin-5]", "values": [{"measurement": "Ki", "setting": "[4]", "result": 3.16, "unit": "µM"}, {"measurement": "EC50", "setting": "[5]", "result": 79.4, "unit": "µM"}, {"measurement": "efficacy α β-arrestin2", "setting": "[5]", "result": "15±4"}]}
{"molecule": "YPLDLF [Rubiscolin-6]", "values": [{"measurement": "Ki", "setting": "[4]", "result": 1, "unit": "µM"}, {"measurement": "EC50", "setting": "[5]", "result": 7.94, "unit": "µM"}, {"measurement": "efficacy α β-arrestin2", "setting": "[5]", "result": "20±3"}]}
{"molecule": "YPLDLV", "values": [{"measurement": "potency and δ-OR selectivity, in words", "setting": "[6]", "result": "more potent and δ-OR-selective"}]}
